Results from patent publication US20080096894A1, “Anti-Bacterial Compounds” (ASTON UNIVERSITY, priority 2005, published 2008).
In brackets after ≈: the same amount, converted by molar mass. Like-named read-outs stand apart in the source and are kept apart here.

Legend:
E. faecalis = assay: MIC, agar dilution, multipoint inoculator; type: cell-based; conditions: Enterococcus faecalis, upper value of MIC reading, read-out: MIC
How it was run: (§1)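 Minimum inhibitory concentrations come from an agar dilution method using Mueller Hinton medium. Inocula of 10^4 colony forming units per spot were applied with a multipoint inoculator.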

S. haemolyticus = assay: MIC, agar dilution, multipoint inoculator; type: cell-based; conditions: Staphylococcus haemolyticus, 18 h; S. haemolyticus Isolate 1; upper value of MIC reading; read-out: MIC
How it was run: as §1

MRSA = assay: MIC, agar dilution, multipoint inoculator; type: cell-based, methicillin-resistant Staphylococcus aureus; conditions: Staphylococcus aureus
How it was run: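 Agar dilution MIC on Mueller Hinton agar, multipoint inoculator delivering 10^4 colony forming units per spot. MRSA values are ranges across ten clinical MRSA strains; S. aureus NCTC 6571 as reference strain.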

S. aureus = assay: MIC, agar dilution, multipoint inoculator; type: cell-based, Staphylococcus aureus; conditions: Staphylococcus aureus, upper value of MIC reading, read-out: MIC
How it was run: as §1

Bacillus megarerium [1] = assay: MIC, agar dilution, multipoint inoculator; type: cell-based
Procedure: (§2) This activity was measured using a multipoint inoculator method as follows. The MIC for each compound was measured using an agar dilution method (Onda, H., et al., Int. J. Antimicrob. Agents. 18, 263 (2001)) (Mueller Hinton agar) by means of a multipoint inoculator delivering 10^4 colony forming units per spot.
(§3) 4Pycq was also tested against the following bacteria, using the multipoint inoculator method.

Micrococcus roseus = assay: MIC, agar dilution, multipoint inoculator; type: cell-based; conditions: Kocuria rosea
Procedure: as §2, §3

Bacillus polymyxa = assay: MIC, agar dilution, multipoint inoculator; type: cell-based; conditions: Paenibacillus polymyxa
Procedure: as §2, §3

Bacillus cereus [2] = assay: MIC, agar dilution, multipoint inoculator; type: cell-based
Procedure: as §2, §3

[3] = test system: human mononuclear leucocytes (MNL, white blood cells); assay: direct leucocyte toxicity, tryptan blue exclusion, 18 hours; type: cell-based
How it was run: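 Human mononuclear leucocytes exposed to test compound for 18 hours. Cell death scored by trypan blue exclusion, the dye staining dead cells only.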

S. epidemisis = assay: MIC, agar dilution, multipoint inoculator; type: cell-based, Staphylococcus epidermidis; conditions: Staphylococcus epidermidis, upper value of MIC reading, read-out: MIC
How it was run: as §1

E. faecium = assay: MIC, agar dilution, multipoint inoculator; type: cell-based, Enterococcus faecium; conditions: Enterococcus faecium, upper value of MIC reading, read-out: MIC
How it was run: as §1

Bacillus megarerium [4] = assay: MIC, doubling dilution in 96-well microtitre plate; type: cell-based
Procedure: (§4) The compound was tested as follows. […] The wells were inoculated with organism ([…] of medium containing 10^6 cfu/mL) and the plates were incubated at 37° C. overnight. Where growth of organism occurred this was observed as a small button when viewed from underneath the plate. The MIC was determined as the lowest concentration inhibiting growth.

[5] = test system: Streptococcus bovis NCTC 11436; assay: MIC, doubling dilution in 96-well microtitre plate; type: cell-based
Procedure: as §4

[6] = test system: Staphylococcus aureus NCTC 10788; assay: MIC, doubling dilution in 96-well microtitre plate; type: cell-based
Procedure: as §4

Micrococcus luteus = assay: MIC, doubling dilution in 96-well microtitre plate; type: cell-based
Procedure: as §4

Moraxella catarrhalis = assay: MIC, doubling dilution in 96-well microtitre plate; type: cell-based
Procedure: as §4

[7] = test system: Enterobacter cloacae ATCC 13047; assay: MIC, doubling dilution in 96-well microtitre plate; type: cell-based
Procedure: as §4

Hafnia alvei = assay: MIC, doubling dilution in 96-well microtitre plate; type: cell-based
Procedure: as §4

Bacillus subtilis = assay: MIC, doubling dilution in 96-well microtitre plate; type: cell-based
Procedure: as §4

[8] = test system: Klebsiella pneumoniae ATCC 33495; assay: MIC, doubling dilution in 96-well microtitre plate; type: cell-based
Procedure: as §4

Citrobacter freundii = assay: MIC, doubling dilution in 96-well microtitre plate; type: cell-based
Procedure: as §4

[9] = test system: Escherichia coli olli-blue; assay: MIC, doubling dilution in 96-well microtitre plate; type: cell-based
Procedure: as §4

[10] = test system: Staphylococcus aureus (MRSA) 96-7475; assay: MIC, doubling dilution in 96-well microtitre plate; type: cell-based
Procedure: as §4

[11] = test system: Staphylococcus aureus NCTC 6571; assay: MIC, doubling dilution in 96-well microtitre plate; type: cell-based
Procedure: as §4

Enterococcus faecium = assay: MIC, doubling dilution in 96-well microtitre plate; type: cell-based; conditions: Enterococcus faecium ATCC 10541
Procedure: as §4

[12] = test system: Enterococcus faecalis NCTC 5957; assay: MIC, doubling dilution in 96-well microtitre plate; type: cell-based
Procedure: as §4

[13] = test system: Proteus mirabilis NCTC 5887; assay: MIC, doubling dilution in 96-well microtitre plate; type: cell-based
Procedure: as §4

[14] = test system: Staphylococcus aureus W11 MRSA; assay: MIC, doubling dilution in 96-well microtitre plate; type: cell-based
Procedure: as §4

Salmonella arizonae = assay: MIC, doubling dilution in 96-well microtitre plate; type: cell-based
Procedure: as §4

Salmonella banana = assay: MIC, doubling dilution in 96-well microtitre plate; type: cell-based
Procedure: as §4

Bacillus cereus [15] = assay: MIC, doubling dilution in 96-well microtitre plate; type: cell-based
Procedure: as §4

In the case of `CC(C)(C)c1cc(/C=N/N=C(\N)c2ccncc2)c(O)c(C(C)(C)C)c1` [Compound 4PYcq], the MIC (E. faecalis; 18 h, E. faecalis EBH1) is reported as 4 µg/mL (≈ 11.3 µM), the MIC (E. faecalis; 18 h, E. faecalis Isolate 1) is reported as 4 µg/mL (≈ 11.3 µM) and the MIC (E. faecalis; 18 h, E. faecalis Isolate 2) is reported as 4 µg/mL (≈ 11.3 µM). It also gave an MIC (E. faecalis; 18 h, E. faecalis Isolate 4) of 4 µg/mL (≈ 11.3 µM), an MIC (E. faecalis; 18 h, E. faecalis Isolate 5) of 4 µg/mL (≈ 11.3 µM) and an MIC (E. faecalis; NCTC5957, 18 h, E. faecalis NCTC 5957) of 4 µg/mL (≈ 11.3 µM). It also gave an MIC (S. haemolyticus) of 4 µg/mL (≈ 11.3 µM), an MIC (MRSA; 18 h, MRSA Isolate 1, upper value of MIC reading, read-out: MIC) of 4 µg/mL (≈ 11.3 µM) and an MIC (MRSA; 18 h, MRSA Isolate 2, upper value of MIC reading, read-out: MIC) of 4 µg/mL (≈ 11.3 µM). The MIC (MRSA; 18 h, MRSA Isolate 3, upper value of MIC reading, read-out: MIC) was 4 µg/mL (≈ 11.3 µM), the MIC (MRSA; 18 h, MRSA Isolate 4, upper value of MIC reading, read-out: MIC) was 4 µg/mL (≈ 11.3 µM) and the MIC (MRSA; 18 h, MRSA Isolate 5, upper value of MIC reading, read-out: MIC) was 4 µg/mL (≈ 11.3 µM). For the same molecule, the MIC (MRSA; 18 h, MRSA Isolate 6, upper value of MIC reading, read-out: MIC) was 4 µg/mL (≈ 11.3 µM), the MIC (MRSA; 18 h, MRSA Isolate 7, upper value of MIC reading, read-out: MIC) was 4 µg/mL (≈ 11.3 µM) and the MIC (MRSA; 18 h, MRSA Isolate 8, upper value of MIC reading, read-out: MIC) was 4 µg/mL (≈ 11.3 µM). It also gave an MIC (MRSA; 18 h, MRSA Isolate 9, upper value of MIC reading, read-out: MIC) of 4 µg/mL (≈ 11.3 µM), an MIC (MRSA; 18 h, MRSA Isolate 10, upper value of MIC reading, read-out: MIC) of 4 µg/mL (≈ 11.3 µM) and an MIC (MRSA; MRSA, 18 h, panel of ten MRSA strains (clinical isolates), read-out: MRSA MIC range) of 2 to 4 µg/mL (≈ 5.67 to 11.3 µM). For the same molecule, the MIC (MRSA; MRSA, the MRSA strains which were tested, read-out: MIC) was 2 to 4 µg/mL (≈ 5.67 to 11.3 µM), the MIC (S. aureus; 18 h, S. aureus Cowan 1) was 4 µg/mL (≈ 11.3 µM) and the MIC (S. aureus; NCTC6571, 18 h, S. aureus NCTC 6571) was 4 µg/mL (≈ 11.3 µM). The MIC (S. aureus; NCTC10788, 18 h, S. aureus NCTC 10788) was 4 µg/mL (≈ 11.3 µM), the MIC (Bacillus megarerium [1]) was 0.5 to 1 µg/mL (≈ 1.42 to 2.84 µM) and the MIC (Micrococcus roseus) was 0.5 to 1 µg/mL (≈ 1.42 to 2.84 µM). For the same molecule, the MIC (Bacillus polymyxa) was 2 to 4 µg/mL (≈ 5.67 to 11.3 µM), the MIC (Bacillus cereus [2]) was 2 to 4 µg/mL (≈ 5.67 to 11.3 µM) and the “direct MNL toxicity (in words)” value [3] was “very toxic to leucocytes”. The MIC (S. epidemisis; 18 h, S. epidemisis Isolate 1) was 4 µg/mL (≈ 11.3 µM), the MIC (S. epidemisis; NCTC11047, 18 h, S. epidemisis NCTC 11047) was 4 µg/mL (≈ 11.3 µM) and the MIC (E. faecium; 18 h, E. faecium ACTCC 10541) was 4 µg/mL (≈ 11.3 µM). For the same molecule, the MIC (E. faecium; NCTC7171, 18 h, E. faecium NCTC 7171) was 4 µg/mL (≈ 11.3 µM).

`NC(=NN=Cc1ccc([N+](=O)[O-])o1)c1cc[n+]([O-])cc1` (mixture of isomers) [Compound 4PYOfi] was tested, and the MIC (Bacillus megarerium [4]) was 8 to 16 µg/mL, the MIC [5] was 4 to 8 µg/mL and the MIC [6] was 4 to 8 µg/mL. For the same molecule, the MIC (Micrococcus luteus) was 8 to 16 µg/mL, the MIC (Moraxella catarrhalis) was 16 to 32 µg/mL and the MIC [7] was 32 to 64 µg/mL. It also gave an MIC (Hafnia alvei) of 32 to 64 µg/mL, an MIC (Bacillus subtilis) of 8 to 16 µg/mL and an MIC [8] of 32 to 64 µg/mL. The MIC (Citrobacter freundii) was 32 to 64 µg/mL, the MIC [9] was 16 to 32 µg/mL and the MIC [10] was 4 to 8 µg/mL. The MIC [11] was 4 to 8 µg/mL, the MIC (Enterococcus faecium) was 8 to 16 µg/mL and the MIC [12] was 4 to 8 µg/mL. The MIC [13] was 32 to 64 µg/mL, the MIC [14] was 4 to 8 µg/mL and the MIC (Salmonella arizonae) was 16 to 32 µg/mL. The MIC (Salmonella banana) was 4 to 8 µg/mL and the MIC (Bacillus cereus [15]) was 8 to 16 µg/mL.
